In PubChem BioAssay (NCI):
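In this assay, cells in 96-well plates receive the compound at five concentrations for 48 hours. Endpoints are linearly interpolated between the surrounding concentrations. Definition used: TGI = concentration required for complete inhibition of growth.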

What was measured:
Test in all cases: NCI tumour cell line growth inhibition, 48 h
T-47D breast = system: T-47D breast
M14 melanoma = system: M14 melanoma
PC-3 prostate = system: PC-3 prostate
A498 renal = system: A498 renal
OVCAR-8 ovarian = system: OVCAR-8 ovarian
NCI-H522 lung = system: NCI-H522 lung
MOLT-4 leukemia = system: MOLT-4 leukemia
SK-MEL-5 melanoma = system: SK-MEL-5 melanoma
COLO 205 colon = system: COLO 205 colon
ACHN renal = system: ACHN renal
HCC-2998 colon = system: HCC-2998 colon
HL-60(TB) leukemia = system: HL-60(TB) leukemia
SK-MEL-2 melanoma = system: SK-MEL-2 melanoma
BT-549 breast = system: BT-549 breast
K-562 leukemia = system: K-562 leukemia
OVCAR-3 ovarian = system: OVCAR-3 ovarian
HCT-116 colon = system: HCT-116 colon
NCI-H23 lung = system: NCI-H23 lung
LOX IMVI melanoma = system: LOX IMVI melanoma
NCI-H460 lung = system: NCI-H460 lung
SF-539 CNS = system: SF-539 CNS
UACC-257 melanoma = system: UACC-257 melanoma
MDA-N = system: MDA-N
HOP-62 NSCLC = system: HOP-62 NSCLC
OVCAR-5 ovarian = system: OVCAR-5 ovarian
HS 578T breast = system: HS 578T breast
HCT-15 colon = system: HCT-15 colon
HT29 colon = system: HT29 colon
SF-295 CNS = system: SF-295 CNS
EKVX NSCLC = system: EKVX NSCLC
TK-10 renal = system: TK-10 renal
786-0 renal = system: 786-0 renal
SK-MEL-28 melanoma = system: SK-MEL-28 melanoma
MCF7 breast = system: MCF7 breast
NCI/ADR-RES ovarian = system: NCI/ADR-RES ovarian
A549 NSCLC = system: A549 NSCLC
IGROV1 ovarian = system: IGROV1 ovarian
U251 CNS = system: U251 CNS
MDA-MB-435 = system: MDA-MB-435
MDA-MB-231 breast = system: MDA-MB-231 breast
SN12C renal = system: SN12C renal
UO-31 renal = system: UO-31 renal
MALME-3M melanoma = system: MALME-3M melanoma
SR leukemia = system: SR leukemia
SW-620 colon = system: SW-620 colon
SNB-19 CNS = system: SNB-19 CNS
KM12 colon = system: KM12 colon
UACC-62 melanoma = system: UACC-62 melanoma
RPMI-8226 leukemia = system: RPMI-8226 leukemia
DU-145 prostate = system: DU-145 prostate
SNB-75 CNS = system: SNB-75 CNS
CAKI-1 renal = system: CAKI-1 renal
NCI-H226 lung = system: NCI-H226 lung
OVCAR-4 ovarian = system: OVCAR-4 ovarian
SF-268 CNS = system: SF-268 CNS
SK-OV-3 ovarian = system: SK-OV-3 ovarian
CCRF-CEM leukemia = system: CCRF-CEM leukemia
HOP-92 NSCLC = system: HOP-92 NSCLC

## COc1cc2c3c(c1O)N=NC=3CCN=2
T-47D breast
  TGI: 23.3 µM
M14 melanoma
  TGI: 28.8 µM
PC-3 prostate
  TGI: 84.8 µM
A498 renal
  TGI: 75.4 µM
OVCAR-8 ovarian
  TGI: 30.9 µM
NCI-H522 lung
  TGI: 19.4 µM
MOLT-4 leukemia
  TGI: 50.4 µM
SK-MEL-5 melanoma
  TGI: 32.5 µM
COLO 205 colon
  TGI: 35.2 µM
ACHN renal
  TGI: 33.8 µM
HCC-2998 colon
  TGI: > 100 µM
HL-60(TB) leukemia
  TGI: 14.8 µM
SK-MEL-2 melanoma
  TGI: 30.9 µM
BT-549 breast
  TGI: 31.7 µM
K-562 leukemia
  TGI: 18.3 µM
OVCAR-3 ovarian
  TGI: 31 µM
HCT-116 colon
  TGI: 28.1 µM
NCI-H23 lung
  TGI: 38.2 µM
LOX IMVI melanoma
  TGI: 18 µM
NCI-H460 lung
  TGI: 80.1 µM
SF-539 CNS
  TGI: 35.5 µM
UACC-257 melanoma
  TGI: 29.1 µM
MDA-N
  TGI: 25.1 µM
HOP-62 NSCLC
  TGI: 97.3 µM
OVCAR-5 ovarian
  TGI: 34.4 µM
HS 578T breast
  TGI: > 100 µM
HCT-15 colon
  TGI: > 100 µM
HT29 colon
  TGI: 28.8 µM
SF-295 CNS
  TGI: 50.9 µM
EKVX NSCLC
  TGI: 30.7 µM
TK-10 renal
  TGI: 52.3 µM
786-0 renal
  TGI: 32.7 µM
SK-MEL-28 melanoma
  TGI: 32.1 µM
MCF7 breast
  TGI: 20.2 µM
NCI/ADR-RES ovarian
  TGI: > 100 µM
A549 NSCLC
  TGI: 66.4 µM
IGROV1 ovarian
  TGI: 34 µM
U251 CNS
  TGI: 30.6 µM
MDA-MB-435
  TGI: 24.5 µM
MDA-MB-231 breast
  TGI: 29.8 µM
SN12C renal
  TGI: 29.3 µM
UO-31 renal
  TGI: 62.5 µM
MALME-3M melanoma
  TGI: 30.2 µM
SR leukemia
  TGI: 42.3 µM
SW-620 colon
  TGI: 31.7 µM
SNB-19 CNS
  TGI: > 100 µM
KM12 colon
  TGI: 88.4 µM
UACC-62 melanoma
  TGI: 30.7 µM
RPMI-8226 leukemia
  TGI: 31.1 µM

## CCCCC1C=Cn2c(=O)oc3c(OC(C)C)c(OC(C)C)c(O)c1c32 (stereo not given)
T-47D breast
  TGI: 27 µM
M14 melanoma
  TGI: 46.3 µM
PC-3 prostate
  TGI: > 100 µM
A498 renal
  TGI: 32.3 µM
DU-145 prostate
  TGI: 34.2 µM
OVCAR-8 ovarian
  TGI: 29.5 µM
NCI-H522 lung
  TGI: 24.7 µM
MOLT-4 leukemia
  TGI: 27.8 µM
SK-MEL-5 melanoma
  TGI: 27.8 µM
SNB-75 CNS
  TGI: 47.5 µM
COLO 205 colon
  TGI: 30.3 µM
ACHN renal
  TGI: > 100 µM
HL-60(TB) leukemia
  TGI: 22.8 µM
SK-MEL-2 melanoma
  TGI: 37.7 µM
BT-549 breast
  TGI: 34.7 µM
OVCAR-3 ovarian
  TGI: 30.6 µM
HCT-116 colon
  TGI: 34.9 µM
CAKI-1 renal
  TGI: 37.5 µM
NCI-H23 lung
  TGI: 32.6 µM
LOX IMVI melanoma
  TGI: 27.4 µM
NCI-H460 lung
  TGI: 29.6 µM
SF-539 CNS
  TGI: 38.7 µM
NCI-H226 lung
  TGI: 27.5 µM
UACC-257 melanoma
  TGI: 41.7 µM
OVCAR-4 ovarian
  TGI: 42.8 µM
MDA-N
  TGI: 55.5 µM
HOP-62 NSCLC
  TGI: 38 µM
SF-268 CNS
  TGI: 44.9 µM
OVCAR-5 ovarian
  TGI: 34.2 µM
HS 578T breast
  TGI: 67 µM
HCT-15 colon
  TGI: 31.4 µM
HT29 colon
  TGI: 29.2 µM
SF-295 CNS
  TGI: 40 µM
EKVX NSCLC
  TGI: 83.1 µM
TK-10 renal
  TGI: 31.4 µM
786-0 renal
  TGI: 48.6 µM
SK-MEL-28 melanoma
  TGI: 39.3 µM
MCF7 breast
  TGI: 29.2 µM
SK-OV-3 ovarian
  TGI: 84.3 µM
A549 NSCLC
  TGI: 46.6 µM
CCRF-CEM leukemia
  TGI: 25.6 µM
U251 CNS
  TGI: 29.4 µM
MDA-MB-435
  TGI: 26.8 µM
MDA-MB-231 breast
  TGI: 33.1 µM
SN12C renal
  TGI: 49.1 µM
UO-31 renal
  TGI: 27.8 µM
SW-620 colon
  TGI: 27.2 µM
HOP-92 NSCLC
  TGI: 47.2 µM
SNB-19 CNS
  TGI: 68.2 µM
KM12 colon
  TGI: 27.4 µM
UACC-62 melanoma
  TGI: 28.8 µM
